Test results as given in the supplement of paper PMC10307832.

Key:
Test in all cases: relative viability (nuclei count vs DMSO), 5 days (fraction); higher = more cells survive
[1] = test system: ABC-1
Summary of the method: (§1)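 Medians of duplicate plates are given as relative viability. That measure is the nuclei count in treated wells divided by the count in vehicle wells. Counts were taken on 4× images of lung cancer cell lines in 1536-well plates, 5 days after pin-tool dosing the day after seeding with one drug alone or a fixed anchor-drug dose plus five library-drug doses (not always all listed) in √10 steps.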

[2] = test system: CAL-12T
Summary of the method: as §1

[3] = test system: COR-L 105
Summary of the method: as §1

[4] = test system: ChaGo-K-1
Summary of the method: as §1

[5] = test system: EMC-BAC-2
Summary of the method: as §1

[6] = test system: EPLC-272H
Summary of the method: as §1

[7] = test system: HCC-15
Summary of the method: as §1

[8] = test system: HCC-78
Summary of the method: as §1

[9] = test system: HOP-62
Summary of the method: as §1

[10] = test system: LXF-289
Summary of the method: as §1

[11] = test system: NCI-H1666
Summary of the method: as §1

[12] = test system: NCI-H1755
Summary of the method: as §1

[13] = test system: NCI-H1915
Summary of the method: as §1

[14] = test system: NCI-H1975
Summary of the method: as §1

[15] = test system: NCI-H1993
Summary of the method: as §1

[16] = test system: NCI-H2023
Summary of the method: as §1

[17] = test system: NCI-H2085
Summary of the method: as §1

[18] = test system: NCI-H2126
Summary of the method: as §1

[19] = test system: NCI-H3122
Summary of the method: as §1

[20] = test system: NCI-H322M
Summary of the method: as §1

[21] = test system: NCI-H358
Summary of the method: as §1

[22] = test system: NCI-H441
Summary of the method: as §1

[23] = test system: UMC-11
Summary of the method: as §1

SMILES: CC1(C)CCC(c2ccc(Cl)cc2)=C(CN2CCN(c3ccc(C(=O)NS(=O)(=O)c4ccc(N[C@H](CCN5CCOCC5)CSc5ccccc5)c(S(=O)(=O)C(F)(F)F)c4)cc3)CC2)C1 [Navitoclax] + Cc1cc(Nc2cc(N3CCN(C)CC3)nc(Sc3ccc(NC(=O)C4CC4)cc3)n2)n[nH]1 [Tozasertib] (partner 0.1 µM)
- relative viability ([1]; first compound 0.005 µM): 0.158
- relative viability ([1]; first compound 0.01581 µM): 0.19
- relative viability ([1]; first compound 0.05 µM): 0.144
- relative viability ([1]; first compound 0.1581 µM): 0.164
- relative viability ([1]; first compound 0.5 µM): 0.141
- relative viability ([2]; first compound 0.005 µM): 0.273
- relative viability ([2]; first compound 0.01581 µM): 0.354
- relative viability ([2]; first compound 0.05 µM): 0.312
- relative viability ([2]; first compound 0.1581 µM): 0.347
- relative viability ([2]; first compound 0.5 µM): 0.308
- relative viability ([3]; first compound 0.005 µM): 0.353
- relative viability ([3]; first compound 0.01581 µM): 0.338
- relative viability ([3]; first compound 0.05 µM): 0.369
- relative viability ([3]; first compound 0.1581 µM): 0.348
- relative viability ([3]; first compound 0.5 µM): 0.29
- relative viability ([4]; first compound 0.005 µM): 0.238
- relative viability ([4]; first compound 0.01581 µM): 0.225
- relative viability ([4]; first compound 0.05 µM): 0.184
- relative viability ([4]; first compound 0.1581 µM): 0.239
- relative viability ([4]; first compound 0.5 µM): 0.216
- relative viability ([5]; first compound 0.005 µM): 0.273
- relative viability ([5]; first compound 0.01581 µM): 0.27
- relative viability ([5]; first compound 0.05 µM): 0.243
- relative viability ([5]; first compound 0.1581 µM): 0.273
- relative viability ([5]; first compound 0.5 µM): 0.263
- relative viability ([6]; first compound 0.005 µM): 0.28
- relative viability ([6]; first compound 0.05 µM): 0.313
- relative viability ([6]; first compound 0.1581 µM): 0.204
- relative viability ([6]; first compound 0.5 µM): 0.242
- relative viability ([7]; first compound 0.005 µM): 0.428
- relative viability ([7]; first compound 0.01581 µM): 0.524
- relative viability ([7]; first compound 0.05 µM): 0.449
- relative viability ([7]; first compound 0.1581 µM): 0.481
- relative viability ([7]; first compound 0.5 µM): 0.467
- relative viability ([8]; first compound 0.005 µM): 0.403
- relative viability ([8]; first compound 0.01581 µM): 0.594
- relative viability ([8]; first compound 0.1581 µM): 0.584
- relative viability ([8]; first compound 0.5 µM): 0.428
- relative viability ([9]; first compound 0.005 µM): 0.389
- relative viability ([9]; first compound 0.01581 µM): 0.4
- relative viability ([9]; first compound 0.05 µM): 0.366
- relative viability ([9]; first compound 0.1581 µM): 0.299
- relative viability ([9]; first compound 0.5 µM): 0.374
- relative viability ([10]; first compound 0.005 µM): 0.192
- relative viability ([10]; first compound 0.01581 µM): 0.222
- relative viability ([10]; first compound 0.05 µM): 0.15
- relative viability ([10]; first compound 0.1581 µM): 0.193
- relative viability ([10]; first compound 0.5 µM): 0.217
- relative viability ([11]; first compound 0.005 µM): 0.626
- relative viability ([11]; first compound 0.01581 µM): 0.638
- relative viability ([11]; first compound 0.05 µM): 0.61
- relative viability ([11]; first compound 0.1581 µM): 0.587
- relative viability ([11]; first compound 0.5 µM): 0.666
- relative viability ([12]; first compound 0.005 µM): 0.523
- relative viability ([12]; first compound 0.01581 µM): 0.599
- relative viability ([12]; first compound 0.05 µM): 0.441
- relative viability ([12]; first compound 0.1581 µM): 0.453
- relative viability ([12]; first compound 0.5 µM): 0.527
- relative viability ([13]; first compound 0.005 µM): 0.42
- relative viability ([13]; first compound 0.01581 µM): 0.422
- relative viability ([13]; first compound 0.05 µM): 0.432
- relative viability ([13]; first compound 0.1581 µM): 0.414
- relative viability ([13]; first compound 0.5 µM): 0.418
- relative viability ([14]; first compound 0.005 µM): 0.791
- relative viability ([14]; first compound 0.01581 µM): 0.917
- relative viability ([14]; first compound 0.05 µM): 0.714
- relative viability ([14]; first compound 0.1581 µM): 0.734
- relative viability ([14]; first compound 0.5 µM): 0.815
- relative viability ([15]; first compound 0.005 µM): 0.596
- relative viability ([15]; first compound 0.01581 µM): 0.666
- relative viability ([15]; first compound 0.05 µM): 0.597
- relative viability ([15]; first compound 0.1581 µM): 0.522
- relative viability ([15]; first compound 0.5 µM): 0.595
- relative viability ([16]; first compound 0.005 µM): 0.384
- relative viability ([16]; first compound 0.01581 µM): 0.32
- relative viability ([16]; first compound 0.05 µM): 0.357
- relative viability ([16]; first compound 0.1581 µM): 0.36
- relative viability ([16]; first compound 0.5 µM): 0.244
- relative viability ([17]; first compound 0.005 µM): 0.804
- relative viability ([17]; first compound 0.01581 µM): 0.734
- relative viability ([17]; first compound 0.05 µM): 0.811
- relative viability ([17]; first compound 0.1581 µM): 0.772
- relative viability ([17]; first compound 0.5 µM): 0.752
- relative viability ([18]; first compound 0.005 µM): 0.817
- relative viability ([18]; first compound 0.01581 µM): 0.906
- relative viability ([18]; first compound 0.05 µM): 0.858
- relative viability ([18]; first compound 0.1581 µM): 0.823
- relative viability ([18]; first compound 0.5 µM): 0.749
- relative viability ([19]; first compound 0.005 µM): 0.353
- relative viability ([19]; first compound 0.01581 µM): 0.286
- relative viability ([19]; first compound 0.05 µM): 0.481
- relative viability ([19]; first compound 0.1581 µM): 0.306
- relative viability ([19]; first compound 0.5 µM): 0.373
- relative viability ([20]; first compound 0.005 µM): 0.48
- relative viability ([20]; first compound 0.01581 µM): 0.579
- relative viability ([20]; first compound 0.05 µM): 0.491
- relative viability ([20]; first compound 0.1581 µM): 0.548
- relative viability ([20]; first compound 0.5 µM): 0.532
- relative viability ([21]; first compound 0.005 µM): 0.1
- relative viability ([21]; first compound 0.01581 µM): 0.0998
- relative viability ([21]; first compound 0.05 µM): 0.105
- relative viability ([21]; first compound 0.1581 µM): 0.122
- relative viability ([21]; first compound 0.5 µM): 0.109
- relative viability ([22]; first compound 0.005 µM): 0.648
- relative viability ([22]; first compound 0.01581 µM): 0.846
- relative viability ([22]; first compound 0.05 µM): 0.719
- relative viability ([22]; first compound 0.1581 µM): 0.524
- relative viability ([22]; first compound 0.5 µM): 0.676
- relative viability ([23]; first compound 0.005 µM): 0.196
- relative viability ([23]; first compound 0.01581 µM): 0.184
- relative viability ([23]; first compound 0.05 µM): 0.207
- relative viability ([23]; first compound 0.1581 µM): 0.2
- relative viability ([23]; first compound 0.5 µM): 0.188
